Laboratory results as given in patent US20200255714A1, “HYDROFLUOROEPOXIDE CONTAINING COMPOSITIONS AND METHODS FOR USING SAME” (3M INNOVATIVE PROPERTIES COMPANY, priority 2017, published 2020).

Legend:
Assay type in all cases: physicochemical
[1] = Chemical stability with absorbents at 65° C. (GC-FID); conditions: 16 hours, initial starting material 99.6
Procedure: The chemical stability was evaluated by charging a weighed amount of Preparatory Example PE1 into glass vials and then adding a weighed amount of absorbent. The samples were stirred with heating at 65° C. for 16 hours and then analyzed by GC-FID to determine whether any breakdown products were formed and whether the level of purity changed.

[2] = Kinematic viscosity by Ubbelohde capillary viscometer
Procedure: Kinematic Viscosity was measured using glass SCHOTT Ubbelohde capillary viscometers (Xylem, Inc., Germany). The viscometers were timed using a SCHOTT AVS 350 viscosity timer. For a temperature of 10° C., a Lawler temperature control bath was used (Lawler Manufacturing Corp., Edison, N.J., US). The viscometer measurement stand and glass viscometer were immersed in a temperature-controlled liquid bath filled with NOVEC 7500 (3M Company, Saint Paul, Minn., US) as the bath fluid. The Lawler temperature bath was fitted with a copper tubing coil for liquid nitrogen cooling with fine temperature control provided by the bath's electronic temperature control heater. The fluid was mechanically stirred to provide uniform temperature in the bath. The bath controlled temperature to within ±0.1° C., as measured by the built-in resistance temperature detector (RTD) temperature sensor. The sample liquid was added to the viscometer between the two fill lines etched on the viscometer. The AVS-350 automatically pumped the sample fluid above the upper timing mark, then released the fluid and measured the efflux times between the upper and lower timing marks. The fluid meniscus was detected by optical sensors as it passed each timing mark. The sample was drawn up and measured repeatedly, averaging multiple measurements. The glass viscometers were calibrated using Canon certified kinematic viscosity standard fluids to obtain a calibration constant (centistokes per second) for each viscometer. The measured kinematic viscosity (centistokes), was calculated as the average efflux time (seconds) times the constant (centistokes/second) for the viscometer used.

[3] = Vapor pressure by stirred-flask ebuilliometer method (ASTM E 1719-97)
Procedure: Vapor Pressure was measured using the stirred-flask ebuilliometer method described in ASTM E 1719-97 “Vapor Pressure Measurement by Ebuilliometry.” This method is also referred to as “Dynamic Reflux.” The method uses a 50-mL glass round-bottom flask. Vacuum was measured and controlled using a J-KEM vacuum controller (J-KEM Scientific, Saint Louis, Mo., US). The pressure transducer was calibrated on the day of measurement by comparison with full vacuum and with an electronic barometer. The procedure was to begin slowly heating the material, then vacuum was applied until boiling occurred and a steady drop wise reflux rate was established. Pot temperature and pressure reading were recorded, then the vacuum controller was set for a higher absolute pressure and the material was heated further until a new reflux point was established. The pressure level was raised in increments until the vapor pressure curve was obtained up to the atmospheric boiling point. The boiling point of PE1 at 760 mmHg was 238.3° C.

[4] = Thermal stability under air sparging at elevated temperature (GC analysis); conditions: 72 hour stir at 215° C.-220° C., sparging by air 0.4 L/min
Procedure: To a 3-neck 250 mL round bottom flask equipped with a water-cooled condenser, temperature probe, magnetic stir bar, and a ⅛ inch FEP tube connected to 10 micron steel frit was charged 2,3-bis(3,3,4,4,5,5,5-heptafluoro-2,2-bis(trifluoromethyl)pentyl) oxirane (70.4 g, 99 mmol). Sparging by air through the 10 micron steel frit at a rate of 0.4 L/min commenced and the internal temperature was slowly raised to 220° C. with stirring. After a 72 hour stir with the temperature held between 215° C.-220° C., the material was allowed to cool to room temperature.

FC(F)(F)C(F)(F)C(F)(F)C(CC1OC1CC(C(F)(F)F)(C(F)(F)F)C(F)(F)C(F)(F)C(F)(F)F)(C(F)(F)F)C(F)(F)F (stereo not shown) [PE1, 2,3-bis(3,3,4,4,5,5,5-heptafluoro-2,2-bis(trifluoromethyl)pentyl)oxirane]
GC-FID purity (%) ([1]; 4 Å molecular sieves): 99.6% | GC-FID purity (%) ([1]; Activated carbon): 98.4% | GC-FID purity (%) ([1]; Basic alumina): 99.7% | GC-FID purity (%) ([1]; Potassium carbonate): 99.6% | GC-FID purity (%) ([1]; Silica gel): 99.6% | Kinematic Viscosity ([2]; 10.0 ° C.): 146.42 cSt | Kinematic Viscosity ([2]; 25.0 ° C.): 36.22 cSt | Kinematic Viscosity ([2]; 30.0 ° C.): 25.87 cSt | Kinematic Viscosity ([2]; 40.0 ° C.): 14.49 cSt | Vapor pressure ([3]; 20 ° C.): 0.026 mmHg | Vapor pressure ([3]; 55 ° C.): 0.35 mmHg | Vapor pressure ([3]; 78.6 ° C.): 1.5 mmHg | Vapor pressure ([3]; 170.7 ° C.): 96.6 mmHg | Vapor pressure ([3]; 204.3 ° C.): 296.9 mmHg | Vapor pressure ([3]; 214.7 ° C.): 397.1 mmHg | Vapor pressure ([3]; 237.7 ° C.): 731.3 mmHg | boiling point ([3]; at 760 mmHg): 238.3 °C | content of starting material in final mixture (GC analysis) [4]: approximately 99.4% | decomposition (GC analysis) [4]: no decomposition
